Measurements reported in ChEMBL document CHEMBL5518227, “Discovery of JNJ-1802, a First-in-Class Pan-Serotype Dengue Virus NS4B Inhibitor” (J Med Chem, 2024).
Converted amounts (≈) assume the structure as drawn. “And” between values parts separate entries of the source, which are not always exact repeats. Equal values may be shown once.

Columns and labels:
[1] = system: dengue virus type 3; assay: Antiviral activity against DENV-3 H87 infected in african green monkey Vero cells incubated for 24 hrs measured after 3 days post infection by RT-PCR analysis; assay type: functional, organism-based
[2] = system: dengue virus type 2; assay: Antiviral activity against DENV-2 16681 expressing eGFP infected in african green monkey Vero cells incubated with cells for 24 hrs followed by viral infection measured after 3 days by laser microscopic analysis; assay type: functional, organism-based; conditions: Dengue virus, 16681, Vero
[3] = system: dengue virus type 1; assay: Antiviral activity against DENV-1 TC974#666 infected in african green monkey Vero cells incubated for 24 hrs measured after 3 days post infection by RT-PCR analysis; assay type: functional, organism-based
[4] = Metabolic stability in human liver microsomes assessed as intrinsic clearance preincubated for 5 mins followed by NADPH addition measured upto 60 mins by LC-MS/MS analysis; assay type: ADME, Microsome; conditions: time < 65 min, read-out: CLH
[5] = system: dengue virus type 4; assay: Antiviral activity against DENV-4 H241 infected in african green monkey Vero cells incubated for 24 hrs measured after 3 days post infection by RT-PCR analysis; assay type: functional, organism-based
[6] = Chromatographic hydrophobicity index, log D of the compound at pH 7.4 by LC/MS analysis; assay type: physicochemical; conditions: buffer
[7] = Metabolic stability in human hepatocytes assessed as intrinsic clearance measured per million cells incubated upto 120 mins by LC-MS/MS analysis; assay type: ADME, cell-based, Hepatocyte; conditions: read-out: CLH
[8] = Clearance in Sprague-Dawley rat at 2.5 mg/kg, iv measured after 24 hrs by LC-MS/MS analysis; assay type: ADME, organism-based; conditions: in vivo
[9] = Volume of distribution at steady state in Sprague-Dawley rat at 2.5 mg/kg, iv measured after 24 hrs by LC-MS/MS analysis; assay type: ADME, organism-based; conditions: in vivo, read-out: Vdss
[10] = AUC in Sprague-Dawley rat at 10 mg/kg, po measured after 24 to 48 hrs by LC-MS/MS analysis; assay type: ADME, organism-based; conditions: in vivo, time 24-48 hrs
[11] = Thermodynamic solubility of the compound in aqueous buffer at pH 7.4 measured after 24 hrs by UPLC analysis; assay type: physicochemical; conditions: read-out: Therm_solubility
[12] = Oral bioavailability in Sprague-Dawley rat at 10 mg/kg measured after 24 to 48 hrs by LC-MS/MS analysis; assay type: ADME, organism-based; conditions: in vivo, time 24-48 hrs
[13] = Thermodynamic solubility of the compound in PEG400 measured after 24 hrs by UPLC analysis; assay type: physicochemical
[14] = Cmax in Sprague-Dawley rat at 10 mg/kg, po measured after 24 to 48 hrs by LC-MS/MS analysis; assay type: ADME, organism-based; conditions: in vivo, time 24-48 hrs
[15] = Elimination half life in Sprague-Dawley rat at 2.5 mg/kg, iv measured after 24 hrs by LC-MS/MS analysis; assay type: ADME, organism-based; conditions: in vivo, read-out: beta t1/2 (converted)
[16] = Clearance in Sprague-Dawley rat assessed as liver blood flow at 2.5 mg/kg, iv measured after 24 hrs by LC-MS/MS analysis; assay type: ADME, organism-based; conditions: in vivo
[17] = Metabolic stability in rat hepatocytes assessed as intrinsic clearance measured per million cells incubated upto 120 mins by LC-MS/MS analysis; assay type: ADME, cell-based, Hepatocyte; conditions: read-out: CLH
[18] = Metabolic stability in rat liver microsomes assessed as intrinsic clearance preincubated for 5 mins followed by NADPH addition measured upto 60 mins by LC-MS/MS analysis; assay type: ADME, Microsome; conditions: time < 65 min, read-out: CLH
[19] = Metabolic stability in mouse liver microsomes assessed as intrinsic clearance preincubated for 5 mins followed by NADPH addition measured upto 60 mins by LC-MS/MS analysis; assay type: ADME, Microsome; conditions: time < 65 min, read-out: CLH
[20] = Dengue virus, H87, Vero, read-out: EC50
[21] = Dengue virus, TC974#666, Vero, read-out: EC50

Row | Structure (SMILES) | EC50 [1, 20] [nM] | EC50 [2] [nM] | EC50 [3, 21] [nM] | microsomal CLint [4] [µL/min/mg] | EC50 [5] [nM] | Chromatographic log D at pH 7.4 [6] | hepatocyte CLint [7] [µL/min/1e6 cells] | microsomal CLint [18] [µL/min/mg] | further results
1 | COc1cc(NC(C(=O)c2c[nH]c3cc(OC)c(F)cc23)c2ccc(Cl)cc2OC)cc(S(C)(=O)=O)c1 (single isomer, unassigned; (+)) | 53 | 0.34 | 4 | < 8 | 100 | 3.22 | 10 | – | –
2 | COc1cc(NC(C(=O)c2c[nH]c3cc(F)c(C)cc23)c2ccc(Cl)cc2OC)cc(S(C)(=O)=O)c1 (single isomer, unassigned; (+)) | 8 | 0.17 | 0.4 | < 8 | 44 | 3.68 | 2.4 | – | –
3 | COc1cc(NC(C(=O)c2c[nH]c3ccc(C(F)(F)F)cc23)c2ccc(Cl)cc2OC)cc(S(C)(=O)=O)c1 (single isomer, unassigned; (+)) | 6 | 0.31 | 0.4 | < 8 | 15 | 3.87 | < 1.2 | – | –
4 | COc1cc(NC(C(=O)c2c[nH]c3c(C)c(OC)ccc23)c2ccc(Cl)cc2OC)cc(S(C)(=O)=O)c1 (single isomer, unassigned; (+)) | 19 | 0.11 | 2 | < 8 | 95 | 3.59 | 14 | – | –
5 | COc1cc(NC(C(=O)c2c[nH]c3cc(OC)c(C)cc23)c2ccc(F)cc2OC)cc(S(C)(=O)=O)c1 (single isomer, unassigned; (+)) | 55 | 0.61 | 40 | – | 110 | 3.36 | 7.6 | – | clearance [8]: 14 mL/min/kg; Vd [9]: 5.5 L/kg; AUC [10]: 3700 ng·h/mL; solubility thermodynamic at 24 h [11]: 1 µg/mL (≈ 1.9 µM); bioavailability [12]: 31%; Therm_solubility [13]: 93000 µg/mL; Cmax [14]: 263 ng/mL; half-life [15]: 5.1 h; LBF [16]: 20%; hepatocyte CLint [17]: 17 µL/min/1e6 cells
6 | COc1cc(NC(C(=O)c2c[nH]c3ccccc23)c2ccc(F)cc2)cc(S(=O)(=O)CCCO)c1 (stereo not given) | – | 230 | – | 35 | 14000 | – | – | 66 | EC50 ([1]; vero): Not Active; EC50 ([3]; vero): Not Active
7 | COc1cc(NC(C(=O)c2c[nH]c3cc(OC)c(OC(F)(F)F)cc23)c2ccc(Cl)cc2OC)cc(S(C)(=O)=O)c1 (single isomer, unassigned; (+)) | 4 | 0.057 | 0.3 | < 8 | 11 | 3.82 | < 1.2 | – | –
8 | COc1cc(NC(C(=O)c2c[nH]c3cc(F)ccc23)c2ccc(Cl)cc2OC)cc(S(C)(=O)=O)c1 (single isomer, unassigned; (+)) | – | – | – | < 8 | – | 3.46 | – | – | EC50 ([3]; vero, read-out: EC50): 20 nM and 2 nM
9 | COc1cc(NC(C(=O)c2c[nH]c3ccccc23)c2ccc(F)cc2OC)cc(OCCO)c1 (single isomer, unassigned; (+)) | 210 | 9 | 40 | 8 | 760 | – | – | 24 | microsomal CLint [19]: 190 µL/min/mg
10 | COc1cc(NC(C(=O)c2c[nH]c3ccccc23)c2ccc(F)cc2OC)cc(S(C)(=O)=O)c1 (single isomer, unassigned; (+)) | 120 | 2 | 12 | 9 | 230 | – | 7 | 15 | microsomal CLint [19]: 27 µL/min/mg
